# Data reported in US20210255193A1, “LYSINE REACTIVE PROBES AND USES THEREOF” (The Scripps Research Institute, priority 2017, published 2021).
# Assays:
# Test in all cases: competitive isoTOP-ABPP
# Assay type in all cases: binding
# [1] = target: T1, EEF2 Elongation factor 2 (Homo sapiens, UniProt P13639); conditions: for isoTOP-ABPP ratio, lysine P13639_K235 / isoTOP-ABPP ratio, lysine P13639_K318: 50 uM_231_sol_in vitro; for R value (DMSO/fragment) for probe 1 labeling / isoTOP-ABPP ratio (R) at liganded lysine P13639_K235 / isoTOP-ABPP ratio (R) at liganded lysine P13639_K318: 50 uM, in vitro; for R value (DMSO/fragment) for probe 1 labeling: 231 sol; for isoTOP-ABPP ratio (R) at liganded lysine P13639_K235 / isoTOP-ABPP ratio (R) at liganded lysine P13639_K318: sol, 231
# T1 construct: isoTOP-ABPP experiments performed in cell lysates (in vitro); endogenous in cells; host or cells: soluble proteome of human cancer cell lines (MDA-MB-231; Ramos and Jurkat also prepared)
# How it was run: (§1)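 Here, isoTOP-ABPP measures loss of STP-alkyne labeling at individual lysines after fragment exposure in lysate. Activated esters are dosed at 50 μM, guanidinylating agents at 100 μM; the probe follows at 0.1 mM for 1 h. R ≥4 marks a liganded lysine.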
# [2] = target: T2, MTOR Serine/threonine-protein kinase mTOR (Homo sapiens, UniProt P42345); conditions: for isoTOP-ABPP ratio, lysine P42345_K2066: 50 uM_231_sol_in vitro; for R value (DMSO/fragment) for probe 1 labeling: P42345_K2066, 50 uM, 231 sol, in vitro
# T2 construct: isoTOP-ABPP experiments performed in cell lysates (in vitro); endogenous in cells; host or cells: soluble proteome of human cancer cell lines (MDA-MB-231; Ramos and Jurkat also prepared)
# How it was run: as §1
# [3] = target: T3, RINT1 RAD50-interacting protein 1 (Homo sapiens, UniProt Q6NUQ1); conditions: for isoTOP-ABPP ratio, lysine Q6NUQ1_K771: 50 uM_231_sol_in vitro; for R value (DMSO/fragment) for probe 1 labeling: Q6NUQ1_K771, 231 sol; for R value (DMSO/fragment) for probe 1 labeling / isoTOP-ABPP ratio (R) at liganded lysine Q6NUQ1_K771: 50 uM, in vitro; for isoTOP-ABPP ratio (R) at liganded lysine Q6NUQ1_K771: sol, 231
# T3 construct: isoTOP-ABPP experiments performed in cell lysates (in vitro); endogenous in cells; host or cells: soluble proteome of human cancer cell lines (MDA-MB-231; Ramos and Jurkat also prepared)
# T3 sequence (Q6NUQ1 whole entry, the tested form may be a part): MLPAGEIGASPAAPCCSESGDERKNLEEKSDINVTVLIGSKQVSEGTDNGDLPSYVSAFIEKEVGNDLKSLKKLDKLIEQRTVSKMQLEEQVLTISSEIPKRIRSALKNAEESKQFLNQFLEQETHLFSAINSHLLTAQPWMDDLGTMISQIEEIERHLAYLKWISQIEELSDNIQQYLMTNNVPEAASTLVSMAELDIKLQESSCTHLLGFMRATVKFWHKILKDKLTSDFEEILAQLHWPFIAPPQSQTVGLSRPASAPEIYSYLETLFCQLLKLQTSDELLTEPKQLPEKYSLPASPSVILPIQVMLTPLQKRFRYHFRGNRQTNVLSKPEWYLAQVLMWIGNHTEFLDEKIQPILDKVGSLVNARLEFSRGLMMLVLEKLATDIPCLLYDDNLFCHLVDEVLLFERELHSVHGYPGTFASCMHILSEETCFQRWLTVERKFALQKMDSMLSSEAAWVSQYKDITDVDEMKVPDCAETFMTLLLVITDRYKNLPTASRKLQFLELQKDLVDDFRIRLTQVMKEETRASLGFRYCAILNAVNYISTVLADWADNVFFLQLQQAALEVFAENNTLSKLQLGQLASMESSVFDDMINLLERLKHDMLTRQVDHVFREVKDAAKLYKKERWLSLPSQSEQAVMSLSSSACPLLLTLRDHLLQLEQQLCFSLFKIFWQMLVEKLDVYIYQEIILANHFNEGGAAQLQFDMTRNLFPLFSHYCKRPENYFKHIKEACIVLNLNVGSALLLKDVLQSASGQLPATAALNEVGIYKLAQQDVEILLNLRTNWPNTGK
# How it was run: as §1
# [4] = target: T4, XRCC6 X-ray repair cross-complementing protein 6 (Homo sapiens, UniProt P12956); conditions: for isoTOP-ABPP ratio, lysine P12956_K351: 50 uM_231_sol_in vitro; for R value (DMSO/fragment) for probe 1 labeling: P12956_K351, 231 sol; for R value (DMSO/fragment) for probe 1 labeling / isoTOP-ABPP ratio (R) at liganded lysine P12956_K351: 50 uM, in vitro; for isoTOP-ABPP ratio (R) at liganded lysine P12956_K351: sol, 231
# T4 construct: isoTOP-ABPP experiments performed in cell lysates (in vitro); endogenous in cells; host or cells: soluble proteome of human cancer cell lines (MDA-MB-231; Ramos and Jurkat also prepared)
# T4 sequence (P12956 2-609 limits assumed): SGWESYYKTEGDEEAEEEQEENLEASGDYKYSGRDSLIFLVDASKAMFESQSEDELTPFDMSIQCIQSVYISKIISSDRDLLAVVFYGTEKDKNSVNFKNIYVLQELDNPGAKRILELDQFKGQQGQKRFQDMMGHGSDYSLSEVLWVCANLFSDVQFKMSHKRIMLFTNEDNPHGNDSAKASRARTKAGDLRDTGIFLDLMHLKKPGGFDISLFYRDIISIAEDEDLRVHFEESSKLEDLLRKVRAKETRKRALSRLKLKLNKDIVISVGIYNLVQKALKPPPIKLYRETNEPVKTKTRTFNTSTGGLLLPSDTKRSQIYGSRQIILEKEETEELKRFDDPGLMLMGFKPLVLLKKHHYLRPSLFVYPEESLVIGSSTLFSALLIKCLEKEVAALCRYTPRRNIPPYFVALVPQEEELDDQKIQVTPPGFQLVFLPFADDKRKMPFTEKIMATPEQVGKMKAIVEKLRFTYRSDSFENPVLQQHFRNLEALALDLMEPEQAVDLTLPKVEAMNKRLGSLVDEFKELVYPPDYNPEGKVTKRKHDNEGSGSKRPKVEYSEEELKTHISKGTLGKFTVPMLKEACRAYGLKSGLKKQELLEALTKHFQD
# T4 sequence (P13010 2-732 partner limits assumed): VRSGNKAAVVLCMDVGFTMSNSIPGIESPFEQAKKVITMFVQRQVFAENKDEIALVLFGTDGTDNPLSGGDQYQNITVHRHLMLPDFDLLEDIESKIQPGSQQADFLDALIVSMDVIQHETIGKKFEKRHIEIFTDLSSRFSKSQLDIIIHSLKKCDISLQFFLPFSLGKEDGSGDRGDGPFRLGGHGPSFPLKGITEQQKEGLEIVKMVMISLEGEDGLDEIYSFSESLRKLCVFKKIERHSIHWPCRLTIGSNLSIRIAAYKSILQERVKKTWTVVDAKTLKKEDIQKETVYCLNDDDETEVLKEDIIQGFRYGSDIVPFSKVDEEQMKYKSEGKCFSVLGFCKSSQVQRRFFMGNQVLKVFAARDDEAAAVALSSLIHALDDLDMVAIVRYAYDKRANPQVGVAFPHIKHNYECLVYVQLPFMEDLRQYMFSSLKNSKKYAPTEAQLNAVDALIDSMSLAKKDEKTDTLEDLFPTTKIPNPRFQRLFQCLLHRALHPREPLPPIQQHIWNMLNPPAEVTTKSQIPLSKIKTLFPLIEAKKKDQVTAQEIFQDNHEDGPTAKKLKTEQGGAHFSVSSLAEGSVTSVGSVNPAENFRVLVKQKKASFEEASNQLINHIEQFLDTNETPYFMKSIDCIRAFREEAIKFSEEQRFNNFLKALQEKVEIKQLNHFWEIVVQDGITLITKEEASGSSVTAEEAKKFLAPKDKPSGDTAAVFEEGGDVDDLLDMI
# How it was run: as §1
# [5] = target: T5, KPNA2 Importin subunit alpha-2 (Homo sapiens, UniProt P52292); conditions: for isoTOP-ABPP ratio, lysine P52292_K459: 50 uM_231_sol_in vitro; for R value (DMSO/fragment) for probe 1 labeling: P52292_K459, 231 sol; for R value (DMSO/fragment) for probe 1 labeling / isoTOP-ABPP ratio (R) at liganded lysine P52292_K459: 50 uM, in vitro; for isoTOP-ABPP ratio (R) at liganded lysine P52292_K459: sol, 231
# T5 construct: isoTOP-ABPP experiments performed in cell lysates (in vitro); endogenous in cells; host or cells: soluble proteome of human cancer cell lines (MDA-MB-231, Ramos, Jurkat)
# How it was run: as §1
# [6] = target: T6, PFKL 6-phosphofructokinase, liver type (Homo sapiens, UniProt P17858); conditions: for isoTOP-ABPP ratio, lysine P17858_K315 / isoTOP-ABPP ratio, lysine P17858_K677 / isoTOP-ABPP ratio, lysine P17858_K715: 50 uM_231_sol_in vitro; for isoTOP-ABPP ratio, lysine P17858_K677: possible other lysine P17858_K681; for isoTOP-ABPP ratio, lysine P17858_K715: possible other lysine P17858_K714; for R value (DMSO/fragment) for probe 1 labeling / isoTOP-ABPP ratio (R) at liganded lysine P17858_K315 / isoTOP-ABPP ratio (R) at liganded lysine P17858_K677 / isoTOP-ABPP ratio (R) at liganded lysine P17858_K715: 50 uM, in vitro; for R value (DMSO/fragment) for probe 1 labeling: 231 sol; for isoTOP-ABPP ratio (R) at liganded lysine P17858_K315 / isoTOP-ABPP ratio (R) at liganded lysine P17858_K677 / isoTOP-ABPP ratio (R) at liganded lysine P17858_K715: sol, 231
# T6 construct: isoTOP-ABPP experiments performed in cell lysates (in vitro); endogenous in cells; host or cells: soluble proteome of human cancer cell lines (MDA-MB-231; Ramos and Jurkat also prepared)
# T6 sequence (P17858 1-780): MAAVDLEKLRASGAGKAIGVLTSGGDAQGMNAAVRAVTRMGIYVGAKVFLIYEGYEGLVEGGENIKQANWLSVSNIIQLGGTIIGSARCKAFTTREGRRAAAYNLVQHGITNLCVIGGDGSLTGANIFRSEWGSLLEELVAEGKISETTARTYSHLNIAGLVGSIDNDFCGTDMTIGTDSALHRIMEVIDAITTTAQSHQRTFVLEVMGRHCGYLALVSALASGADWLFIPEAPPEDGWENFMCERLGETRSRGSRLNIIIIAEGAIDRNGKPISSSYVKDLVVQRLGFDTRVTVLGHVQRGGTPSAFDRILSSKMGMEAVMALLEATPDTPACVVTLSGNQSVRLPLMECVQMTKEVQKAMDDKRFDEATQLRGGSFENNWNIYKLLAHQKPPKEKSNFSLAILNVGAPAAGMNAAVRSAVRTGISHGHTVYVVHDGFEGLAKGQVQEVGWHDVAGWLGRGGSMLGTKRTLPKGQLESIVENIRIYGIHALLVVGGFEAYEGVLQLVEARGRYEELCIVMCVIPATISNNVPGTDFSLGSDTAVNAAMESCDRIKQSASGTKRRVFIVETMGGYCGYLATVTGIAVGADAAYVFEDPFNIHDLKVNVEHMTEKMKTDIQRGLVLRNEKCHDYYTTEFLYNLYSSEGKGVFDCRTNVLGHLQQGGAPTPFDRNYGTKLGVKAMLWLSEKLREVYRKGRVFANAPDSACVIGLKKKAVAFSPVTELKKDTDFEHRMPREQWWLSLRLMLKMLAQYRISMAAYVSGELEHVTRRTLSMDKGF
# How it was run: as §1
SMILES,"isoTOP-ABPP ratio, lysine P13639_K235 [1]","isoTOP-ABPP ratio, lysine P13639_K318 [1]","isoTOP-ABPP ratio, lysine P42345_K2066 [2]","isoTOP-ABPP ratio, lysine Q6NUQ1_K771 [3]","isoTOP-ABPP ratio, lysine P12956_K351 [4]","isoTOP-ABPP ratio, lysine P52292_K459 [5]","isoTOP-ABPP ratio, lysine P17858_K315 [6]","isoTOP-ABPP ratio, lysine P17858_K677 [6]","isoTOP-ABPP ratio, lysine P17858_K715 [6]",R value (DMSO/fragment) for probe 1 labeling ([1]; P13639_K235),R value (DMSO/fragment) for probe 1 labeling ([1]; P13639_K318),R value (DMSO/fragment) for probe 1 labeling [2],R value (DMSO/fragment) for probe 1 labeling [3],R value (DMSO/fragment) for probe 1 labeling [4],R value (DMSO/fragment) for probe 1 labeling [5],R value (DMSO/fragment) for probe 1 labeling ([6]; P17858_K677),R value (DMSO/fragment) for probe 1 labeling ([6]; P17858_K715),isoTOP-ABPP ratio (R) at liganded lysine P13639_K235 [1],isoTOP-ABPP ratio (R) at liganded lysine P13639_K318 [1],isoTOP-ABPP ratio (R) at liganded lysine Q6NUQ1_K771 [3],other results
"O=C(CCc1cn(-c2ccccc2)nc1-c1ccccc1)Oc1c(F)c(F)c(F)c(F)c1F [fragment 19, Pentafluorophenyl 3-(1,3-diphenyl-1H-pyrazol-4-yl)propanoate]",–,–,–,–,–,–,–,–,–,1.2,1.1,0.9,1.2,1.7,2.3,1.2,1.6,–,–,–,R value (DMSO/fragment) for probe 1 labeling ([6]; P17858_K315): 1.0
"O=C(Oc1ccc([N+](=O)[O-])cc1[N+](=O)[O-])C(c1ccccc1)(c1ccccc1)c1ccccc1 [fragment 42, 2,4-Dinitrophenyl 2,2,2-triphenylacetate]",–,–,–,–,–,–,–,–,–,–,–,–,–,–,–,–,–,1.0,1.0,1.1,isoTOP-ABPP ratio (R) at liganded lysine P12956_K351 [4]: 1.0; isoTOP-ABPP ratio (R) at liganded lysine P52292_K459 [5]: 0.9; isoTOP-ABPP ratio (R) at liganded lysine P17858_K315 [6]: 0.7; isoTOP-ABPP ratio (R) at liganded lysine P17858_K677 [6]: 0.8; isoTOP-ABPP ratio (R) at liganded lysine P17858_K715 [6]: 0.9
"CC(C)(C)OC(=O)NCCCC(=O)Oc1ccc([N+](=O)[O-])cc1[N+](=O)[O-] [fragment 41, 2,4-Dinitrophenyl 4-((tert-butoxycarbonyl)amino)butanoate]",–,–,–,–,–,–,–,–,–,–,–,–,–,–,–,–,–,1.0,1.1,0.8,isoTOP-ABPP ratio (R) at liganded lysine P12956_K351 [4]: 1.6; isoTOP-ABPP ratio (R) at liganded lysine P52292_K459 [5]: 2.3; isoTOP-ABPP ratio (R) at liganded lysine P17858_K315 [6]: 2.3; isoTOP-ABPP ratio (R) at liganded lysine P17858_K677 [6]: 5.6; isoTOP-ABPP ratio (R) at liganded lysine P17858_K715 [6]: 2.0

# Further lines, with some results ahead:
"isoTOP-ABPP ratio, lysine P13639_K235 [1]","isoTOP-ABPP ratio, lysine P13639_K318 [1]","isoTOP-ABPP ratio, lysine P42345_K2066 [2]","isoTOP-ABPP ratio, lysine Q6NUQ1_K771 [3]","isoTOP-ABPP ratio, lysine P12956_K351 [4]","isoTOP-ABPP ratio, lysine P52292_K459 [5]","isoTOP-ABPP ratio, lysine P17858_K315 [6]","isoTOP-ABPP ratio, lysine P17858_K677 [6]","isoTOP-ABPP ratio, lysine P17858_K715 [6]",R value (DMSO/fragment) for probe 1 labeling ([1]; P13639_K235),R value (DMSO/fragment) for probe 1 labeling ([1]; P13639_K318),R value (DMSO/fragment) for probe 1 labeling [2],R value (DMSO/fragment) for probe 1 labeling [3],R value (DMSO/fragment) for probe 1 labeling [4],R value (DMSO/fragment) for probe 1 labeling [5],R value (DMSO/fragment) for probe 1 labeling ([6]; P17858_K677),R value (DMSO/fragment) for probe 1 labeling ([6]; P17858_K715),SMILES,isoTOP-ABPP ratio (R) at liganded lysine P13639_K235 [1],isoTOP-ABPP ratio (R) at liganded lysine P13639_K318 [1],isoTOP-ABPP ratio (R) at liganded lysine Q6NUQ1_K771 [3],other results
1.2,1.1,1.0,4.8,1.5,1.1,0.7,0.9,1.0,–,–,–,–,–,–,–,–,"O=C(Oc1c(F)c(F)cc(F)c1F)c1cc(C(F)(F)F)cc(C(F)(F)F)c1 [fragment 48, 2,3,5,6-Tetrafluorophenyl 3,5-bis(trifluoromethyl)benzoate]",–,–,–,–
–,–,–,–,–,–,–,–,–,1.1,1.2,0.7,2.2,1.4,1.0,0.9,0.9,"O=C(Oc1c(F)c(F)c(F)c(F)c1F)c1cc(C(F)(F)F)cc(C(F)(F)F)c1 [fragment 21, Pentafluorophenyl 3,5-bis(trifluoromethyl)benzoate]",–,–,–,–
1.1,1.1,1.1,1.2,1.4,1.2,1.0,1.0,1.0,–,–,–,–,–,–,–,–,"O=C(Oc1c(F)c(F)c(C(F)(F)F)c(F)c1F)c1cc(C(F)(F)F)cc(C(F)(F)F)c1 [fragment 47, 2,3,5,6-Tetrafluoro-4-(trifluoromethyl)phenyl 3,5-bis(trifluoromethyl)benzoate]",–,–,–,–
